From article PMC12192727, “Strategies to Develop Na,K-ATPase-α4 Inhibitors as Male Contraceptives” (International Journal of Molecular Sciences, 2025)
Values after ≈ are worked out from the molar mass of the structure shown. “Also recorded” adds a separate entry of the source. Read-outs that look alike come from different tables or passages of the source.

Assays:
[1] = test system: mouse sperm; experiment: Mouse sperm total motility in vitro (CASA); format: cell-based; details: for Emax: Mus musculus, Sperm, 1 h, nanomolar range concentration, read-out: Maximal Motility Inhibition (%)
Protocol: To characterize the SAR of these compounds, we first evaluated their effects on total sperm motility in vitro. Sperm isolated from the cauda epididymis of mice were incubated with the test compounds in modified Whitten’s medium under non-capacitating conditions. Motility was assessed using a computer-assisted sperm analysis (CASA) system.
All experimental protocols involving animals used in this work were approved by the University of Kansas Medical Center Institutional Animal Care and Use Committee (ACUP number: 22-09-26, 10/2022). C57BL/6 mice were purchased from Harlan (Indianapolis, IN, USA). Spermatozoa were isolated from the cauda of adult mouse epididymis in Whitten’s medium, containing 100 mM NaCl, 4.7 mM KCl, 1.2 mM KH2PO4, 1.2 mM MgSO4, 5.5 mM glucose, 0.8 mM pyruvic acid, 4.8 mM lactic acid, and 40 mM Hepes, as previously described.
Spermatozoa (1 × 10^6 cells) were incubated at 37 °C in 100 μL of Whitten’s medium, with the addition of 1.7 mM CaCl2 and in the absence and presence of different amounts of the tested compounds for 60 min. Then, cells were labeled with the fluorescent nucleic acid stain SYTO 21, which allows for the tracking of the movement of the cell head. After 1 min of incubation with the dye, 5.5 μL aliquots from each sample were taken and placed into a glass cell chamber (Leja Products B.V., Nieuw-Vennep, The Netherlands). Sperm were maintained at 37 °C on a heated platform and viewed with an Olympus BX51 microscope (Olympus, Center Valley, PA, USA) through a 20× phase objective. Images of the moving sperm were captured using a CCD camera. Samples were analyzed by CASA using the Minitube SpermVision Digital Semen Evaluation system (version 3.5; Penetrating Innovations, Verona, WI, USA). An average of 200 cells/field were captured, at a rate of 30 frames per field, and a total of 10 fields in each sample were analyzed. Total sperm motility was obtained from sperm maintained in a non-capacitating medium, while for assessing the hyperactive pattern of motility, typical of sperm capacitation, cells were incubated in Whitten’s medium with the addition of 1.7 mM CaCl2, 25 mM sodium bicarbonate, and 0.5% bovine serum albumin.
(§1) Figure 2 Effect of simplified steroidal analogs on mouse sperm total motility. Sperm was isolated from the cauda epididymis and treated in the absence and presence of the indicated concentrations of each compound. After one hour of incubation, sperm motility was determined by CASA. Values are expressed as the mean ± SEM of three determinations.
as §1, with “4” for “2”, “non-steroidal small compounds” for “simplified steroidal analogs”, “1 h” for “one hour”

[2] = test system: mouse epididymal sperm; experiment: Reversibility of effect on sperm motility after washing; format: cell-based; details: after washing the cells with fresh medium
Protocol: An important goal for the development of agents to be used for contraception is to assess the reversibility of their effect on sperm. To achieve this, we treated mouse sperm in the absence and presence of either 13 or 45 and measured epididymal sperm motility before and after washing the cells with fresh medium.
Mouse epididymal sperm were treated in the absence or presence of compounds 13 or 45 for one hour in Whitten’s medium. After an initial measurement of sperm motility using CASA, the sperm was washed by centrifugating the sample at 300× g for 3 min and resuspension in fresh Whitten’s medium. Then, sperm motility was determined again using CASA for the different times and for up to 180 min.
Figure 7 Reversibility of the effect of compounds 13 and 45. Mouse epididymal sperm were treated in the absence (untreated control) or presence of 13 (A) or 45 (B) for one hour. Then, the sperm was washed, and motility was measured before and after washing the cells using CASA. Sperm movement was followed during the indicated times. Values are expressed as the mean ± SEM of three determinations. Samples treated with 13 and 45 were statistically different from the untreated controls, with p < 0.05.

[3] = physchem; format: physicochemical; details: PBS pH 7.4
Protocol: The stock solutions of 11 and 45 were prepared in DMSO at a concentration of 30 mM, and the stock solution of the control compound was prepared in DMSO at a concentration of 30 mM. Progesterone was used as a positive control in the assay. An amount of 10 µL of stock solution of each compound was placed in order into their proper 96-well rack, followed by adding 990 µL of PBS at pH 7.4 into each vial of the capless Solubility Sample plate. This study was performed in duplicate. One stir stick was added to each vial and then sealed using a molded PTDE/SIL 96-Well Plate Cover (Pharmaron, Waltman, MA, USA). The Solubility Sample plate was transferred to the Thermomixer Comfort plate shaker and incubated at RT for 2 h with shaking at 1100 rpm. After 2 h of incubation, stir sticks were removed using a big magnet, and all samples from the Solubility Sample plate were transferred into the filter plate. All the samples were filtered using a vacuum manifold. The filtered samples were diluted with methanol. The soluble fraction (filtrate) was then analyzed by LC-MS/MS, and the compound concentration was determined using 0.3 μM standard solutions prepared from DMSO stocks. The experimental details are reported in the Supporting Information (Table S1). […]
Table S1 . Solubility Results of Test C ompound and Control C ompound in […]
Compound ID Solubility (µM)
Preparation of Stock Solutions: The stock solutions of test compounds were prepared in DMSO at the concentration of 30 mM, and the stock solution of control compound was prepared in DMSO at the concentration of 30 mM.
Progesterone was used as positive control in the assay.
Solubility Determination: 10 µL stock solution of each compound was placed in order into their proper 96-well rack, followed by adding 990 µL of PBS at pH 7.4 into each vial of the cap-less Solubility Sample plate. This study was performed in duplicate. One stir stick was added to each vial and then vials were sealed using a molded PTDE/SIL 96-Well Plate Cover. The Solubility Sample plate was transferred to the Thermomixer Comfort plate shaker and incubated at RT for 2 hours with shaking at 1100 rpm. After 2 hours incubation, stir sticks were removed using a big magnet and all samples from the Solubility Sample plate were transferred into the filter plate. All the samples were filtered by using the Vacuum Manifold. The filtered samples were diluted with methanol. The dilution factor might be changed according to the solubility value and the LC/MS signal response. To prepare 0.3 µM Standards (STD), 30 mM DMSO compound stock solutions were diluted with DMSO to 300 µM and then diluted with methanol to obtain 0.3 µM STDs. Samples were analyzed by LC-MS/MS. All calculations were carried out using Microsoft Excel. The solution filtered was analyzed and quantified against a standard of known concentration in DMSO using LC coupled with Mass spectral peak identification and quantitation. The solubility values of the test compounds were calculated as follow DF means the dilution factor
1. Chromatographic conditions
Apparatus: Triple QuadTM 5500 instrument from AB Inc (Canada) with an ESI interface Column: XSelect Hss T3 2.5µ (2.1×50 mm) Column XP coupled with preguard column Mobile phase: 0.1% formic acid in acetonitrile (A) and 0.1% formic acid in water (B) […]

[4] = simplified steroid analogs, mouse sperm motility
[5] = aqueous buffer, kinetic from dmso stock, read-out: Solubility

For C[C@]12CC[C@H]3[C@@H](CC=C4C[C@@H](O)CC[C@@]43C)[C@@H]1CC[C@@H]2c1cn(Cc2ccccc2)nn1 [Compound 13, (3S,8S,9S,10R,13S,14S,17S)-17-(1-Benzyl-1H-1,2,3-triazol-4-yl)-10,13-dimethyl-2,3,4,7,8,9,10,11,12,13,14,15,16,17-tetradecahydro-1H-cyclopenta[a]phenanthren-3-ol], the Emax ([1]; simplified steroid analogs, mouse sperm total motility) was 41%, the “Shape of inhibitory dose response on sperm motility” value ([1]; mouse sperm total motility) was “monotonic inhibitory response” and the IC50 [1, 4] was 0.024 nM. For the same compound, the “IC50 (pM)” value [1, 4] was “sub-nanomolar range”, the “Reversibility of effect on sperm motility” value [2] was “maintained over time; also recorded: not reversible” and the Solubility [3] was “poor”. For the same compound, the Solubility [3, 5] was 0.3 µM (≈ 0.129 µg/mL).

With CC12CCC(=O)C=C1CCCC2n1cc(-c2ccccc2)nn1 (stereo not drawn) [Compound 45, 4a-Methyl-5-(4-phenyl-1H-1,2,3-triazol-1-yl)-4,4a,5,6,7,8-hexahydronaphthalen-2(3H)-one] the Emax ([1]; non-steroidal small molecules, mouse sperm total motility) was ~50%, the IC50 ([1]; non-steroidal small molecules, mouse sperm motility) was 0.048 nM and the “Reversibility of effect on sperm motility” value [2] was “maintained over time; also recorded: not reversible”. For the same compound, the Solubility [3] was “good” and the Solubility [3, 5] was 256 µM (≈ 78.7 µg/mL).
